According to patent US8916576B2 (Surface Logix, Inc., priority 2005, dated 2014):
Where “and” joins values, the source holds several entries; their conditions need not be identical. Identical values can stand only once.

Experiments:
ROCK 1 = ROCK 1 (Homo sapiens (Human), UniProt Q13464); test: Inhibition of ROCK1 (Rho kinase inhibition assay); type: biochemical; details: Tables 2.1-2.4
From the text: (§1) Methods of determining kinase inhibition are well known in the art. For example, kinase activity of an enzyme and the inhibitory capacity of a test compound can be determined by measuring enzyme specific phosphorylation of a substrate. Commercial assays and kits can be employed. For example, kinase inhibition can be determined using an IMAP® assay (Molecular Devices). This assay method involves the use of a fluorescently-tagged peptide substrate. Phosphorylation of the tagged peptide by a kinase of interest promotes binding of the peptide to a trivalent metal-based nanoparticle via the specific, high affinity interaction between the phospho-group and the trivalent metal. Proximity to the nanoparticle results in increased fluorescence polarization. Inhibition of the kinase by a kinase inhibitor prevents phosphorylation of the substrate and thereby limits binding of the fluorescently-tagged substrate to the nanoparticle. Such an assay can be compatible with a microwell assay format, allowing simultaneous determination of IC50 of multiple compounds.
(§2) Inhibition of ROCK2 by various compounds was determined.
(§3) Inhibitory activity for Rho kinase was determined for examples of compounds of the present invention. Inhibition of Rho kinase can be assayed as described. For each of these compounds their inhibitory activity for both ROCK 1 and ROCK 2 was determined. […] The IC50 values (in μM) for each of these compounds show a selectivity for inhibiting ROCK2.

ROCK2 = ROCK2 (Homo sapiens (Human), UniProt O75116); test: Inhibition of ROCK2 (Rho kinase inhibition assay; ROCK-II Assay Kit / IMAP); type: biochemical; details: for Specificity of kinase inhibition (FIG. 10): FIG. 10 legend, ROCK2 versus ROCK1 and PKC; for IC50: Table 1, repeat determinations
Chain of ROCK2 (O75116 whole entry, species assumed): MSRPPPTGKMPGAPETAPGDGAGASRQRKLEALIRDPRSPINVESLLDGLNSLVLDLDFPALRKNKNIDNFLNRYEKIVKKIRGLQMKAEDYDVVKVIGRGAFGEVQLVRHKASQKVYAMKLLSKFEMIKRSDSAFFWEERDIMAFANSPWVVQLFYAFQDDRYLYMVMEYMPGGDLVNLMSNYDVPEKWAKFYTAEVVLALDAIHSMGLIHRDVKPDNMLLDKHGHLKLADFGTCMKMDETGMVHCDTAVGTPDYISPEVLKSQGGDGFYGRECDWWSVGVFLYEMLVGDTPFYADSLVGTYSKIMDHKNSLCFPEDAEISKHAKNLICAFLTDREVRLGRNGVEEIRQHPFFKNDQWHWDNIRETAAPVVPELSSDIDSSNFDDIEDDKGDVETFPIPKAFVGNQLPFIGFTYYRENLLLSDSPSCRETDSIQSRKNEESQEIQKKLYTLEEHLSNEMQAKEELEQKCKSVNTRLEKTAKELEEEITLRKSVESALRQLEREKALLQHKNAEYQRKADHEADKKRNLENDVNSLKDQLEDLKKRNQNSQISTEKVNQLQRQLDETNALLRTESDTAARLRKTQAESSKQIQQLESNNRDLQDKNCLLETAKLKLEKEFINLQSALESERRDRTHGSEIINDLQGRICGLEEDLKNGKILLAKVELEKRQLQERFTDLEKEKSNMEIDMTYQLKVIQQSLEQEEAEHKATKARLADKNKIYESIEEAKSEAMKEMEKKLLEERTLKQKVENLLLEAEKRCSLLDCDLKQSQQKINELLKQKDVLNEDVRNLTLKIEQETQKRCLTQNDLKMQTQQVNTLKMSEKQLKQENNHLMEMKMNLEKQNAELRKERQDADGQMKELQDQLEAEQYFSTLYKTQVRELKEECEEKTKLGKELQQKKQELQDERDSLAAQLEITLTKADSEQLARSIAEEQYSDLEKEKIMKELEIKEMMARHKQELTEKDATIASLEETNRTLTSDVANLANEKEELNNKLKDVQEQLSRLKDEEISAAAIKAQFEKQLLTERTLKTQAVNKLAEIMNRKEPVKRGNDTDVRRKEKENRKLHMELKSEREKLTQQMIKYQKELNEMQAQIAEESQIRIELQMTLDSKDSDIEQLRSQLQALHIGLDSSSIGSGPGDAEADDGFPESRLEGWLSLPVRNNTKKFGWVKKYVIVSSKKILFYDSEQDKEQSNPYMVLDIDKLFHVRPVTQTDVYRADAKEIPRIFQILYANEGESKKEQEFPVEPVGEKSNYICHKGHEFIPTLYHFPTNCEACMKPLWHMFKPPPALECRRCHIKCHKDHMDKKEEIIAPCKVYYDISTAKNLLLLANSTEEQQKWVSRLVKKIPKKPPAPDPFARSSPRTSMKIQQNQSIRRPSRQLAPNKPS
From the text: as §1
ROCK-II inhibitory activity can be measured using the ROCK-II Assay Kit (Molecular Devices, inc.; Sunnyvale, Calif.).
as §2, §3

Chain of ROCK 1 (Q13464 whole entry, species assumed): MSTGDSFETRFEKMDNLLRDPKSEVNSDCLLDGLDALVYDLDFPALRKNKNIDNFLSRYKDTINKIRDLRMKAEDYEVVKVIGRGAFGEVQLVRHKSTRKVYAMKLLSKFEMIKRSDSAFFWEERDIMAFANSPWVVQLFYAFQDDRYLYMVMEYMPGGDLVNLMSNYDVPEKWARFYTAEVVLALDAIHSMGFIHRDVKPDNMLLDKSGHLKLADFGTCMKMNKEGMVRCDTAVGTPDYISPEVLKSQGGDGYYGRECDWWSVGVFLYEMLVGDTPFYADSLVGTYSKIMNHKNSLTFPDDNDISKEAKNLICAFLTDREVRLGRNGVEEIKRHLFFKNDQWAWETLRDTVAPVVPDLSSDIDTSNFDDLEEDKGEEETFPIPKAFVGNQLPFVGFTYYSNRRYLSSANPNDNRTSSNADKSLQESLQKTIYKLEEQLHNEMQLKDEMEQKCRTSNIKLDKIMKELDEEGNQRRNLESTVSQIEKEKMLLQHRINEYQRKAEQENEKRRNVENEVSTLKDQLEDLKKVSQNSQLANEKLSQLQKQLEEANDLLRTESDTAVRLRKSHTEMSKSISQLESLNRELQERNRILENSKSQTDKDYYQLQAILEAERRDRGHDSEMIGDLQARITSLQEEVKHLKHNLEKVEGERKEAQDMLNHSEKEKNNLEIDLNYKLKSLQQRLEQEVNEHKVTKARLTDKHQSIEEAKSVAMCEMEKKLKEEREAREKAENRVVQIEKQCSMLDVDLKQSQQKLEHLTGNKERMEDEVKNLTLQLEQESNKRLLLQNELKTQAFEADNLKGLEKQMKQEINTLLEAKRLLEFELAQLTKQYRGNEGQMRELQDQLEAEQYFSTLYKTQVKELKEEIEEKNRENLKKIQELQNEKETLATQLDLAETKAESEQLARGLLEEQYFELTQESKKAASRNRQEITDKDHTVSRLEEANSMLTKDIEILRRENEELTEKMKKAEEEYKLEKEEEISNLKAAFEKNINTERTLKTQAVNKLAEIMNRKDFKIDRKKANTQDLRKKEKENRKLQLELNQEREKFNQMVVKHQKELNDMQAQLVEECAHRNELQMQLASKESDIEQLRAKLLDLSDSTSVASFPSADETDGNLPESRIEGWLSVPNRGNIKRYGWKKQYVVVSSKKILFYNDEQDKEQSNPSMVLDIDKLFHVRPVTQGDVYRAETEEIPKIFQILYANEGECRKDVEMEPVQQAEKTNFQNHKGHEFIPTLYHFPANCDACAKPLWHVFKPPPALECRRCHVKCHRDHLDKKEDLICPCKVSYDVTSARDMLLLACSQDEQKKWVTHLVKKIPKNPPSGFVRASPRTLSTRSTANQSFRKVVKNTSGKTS

SMILES	IC50 (ROCK2)	other results
COCCNC(=O)COc1cccc(-c2nc(Nc3ccc4[nH]ncc4c3)c3ccccc3n2)c1 [Example 54, 2-(3-(4-(1H-indazol-5-ylamino)quinazolin-2-yl)phenoxy)-N-(2-methoxyethyl)acetamide]		IC50 (ROCK 1): > 10 µM
O=C(COc1cccc(-c2nc(Nc3ccc4[nH]ncc4c3)c3ccccc3n2)c1)Nc1cccnc1 [Example 55, 2-(3-(4-(1H-indazol-5-ylamino)quinazolin-2-yl)phenoxy)-N-(pyridin-3-yl)acetamide]		IC50 (ROCK 1): > 10 µM
CC(C)NC(=O)COc1cccc(-c2nc(Nc3ccc4[nH]ncc4c3)c3ccccc3n2)c1 [Example 82, 2-(3-(4-(1H-indazol-5-ylamino)quinazolin-2-yl)phenoxy)-N-isopropylacetamide]		Specificity of kinase inhibition (FIG. 10) (ROCK2): specific inhibition of ROCK2
CCCC(=O)Nc1cccc(-c2nc(Nc3ccc4[nH]ncc4c3)c3cc(OCCN(C)C)ccc3n2)c1 [Example 141, N-(3-(4-(1H-indazol-5-ylamino)-6-(2-(dimethylamino)ethoxy)quinazolin-2-yl)phenyl)butyramide]		IC50 (ROCK 1): > 1 µM
CCCC(=O)Nc1cccc(-c2nc(Nc3ccc4[nH]ncc4c3)c3cc(OCCCN4CCOCC4)c(OC)cc3n2)c1 [Example 160, N-(3-(4-(1H-indazol-5-ylamino)-7-methoxy-6-(3-morpholinopropoxy)quinazolin-2-yl)phenyl)butyramide]		IC50 (ROCK 1): > 3 µM
COc1cc2nc(-c3cccc(NC(=O)CN4CCOCC4)c3)nc(Nc3ccc4[nH]ncc4c3)c2cc1OCCN1CCCC1 [Example 167, N-(3-(4-(1H-Indazol-5-ylamino)-7-methoxy-6-(2-(pyrrolidin-1-yl)ethoxy)quinazolin-2-yl)phenyl)-2-morpholinoacetamide]		IC50 (ROCK 1): > 3 µM
CCCC(=O)Nc1cccc(-c2nc(Nc3ccc4[nH]ncc4c3)c3cc(OCCN4CCN(C)CC4)ccc3n2)c1 [Example 203, N-(3-(4-(1H-indazol-5-ylamino)-6-(2-(4-methylpiperazin-1-yl)ethoxy)-quinazolin-2-yl)phenyl)butyramide]	0.012 µM and 0.0095 µM	
CCCC(=O)Nc1cccc(-c2nc(Nc3ccc4[nH]ncc4c3)c3cc(OCCN4CCC(O)C4)ccc3n2)c1 (centres unmarked) [Example 205, N-(3-(4-(1H-indazol-5-ylamino)-6-(2-(3-hydroxypyrrolidin-1-yl)ethoxy)-quinazolin-2-yl)phenyl)butyramide]	0.011 µM and 0.012 µM and 0.008 µM and 0.013 µM	
CCCC(=O)Nc1cccc(-c2nc(Nc3ccc4[nH]ncc4c3)c3cc(OCCN4CCCC4=O)c(OC)cc3n2)c1 [Example 206, N-(3-(4-(1H-indazol-5-ylamino)-7-methoxy-6-(2-(2-oxopyrrolidin-1-yl)ethoxy)quinazolin-2-yl)phenyl)butyramide]	0.048 µM and 0.064 µM	
CCCC(=O)Nc1cccc(-c2nc(Nc3ccc4[nH]ncc4c3)c3cc(OCCN4CCN(C)CC4)c(OC)cc3n2)c1 [Example 209, N-(3-(4-(1H-indazol-5-ylamino)-7-methoxy-6-(2-(4-methylpiperazin-1-yl)ethoxy)quinazolin-2-yl)phenyl)butyramide]	0.016 µM and 0.014 µM	
CCCC(=O)Nc1cccc(-c2nc(Nc3ccc4[nH]ncc4c3)c3cc(OCCN4CC[C@H](N(C)C)C4)c(OC)cc3n2)c1 [Example 210, N-(3-(4-(1H-indazol-5-ylamino)-6-(2-((S)-3-(dimethylamino)pyrrolidin-1-yl)ethoxy)-7-methoxyquinazolin-2-yl)phenyl)butyramide]	0.018 µM and 0.01 µM	
CCCC(=O)Oc1cccc(-c2nc(Nc3ccc4[nH]ncc4c3)c3ccccc3n2)c1 [Example 211]	0.129 µM	
CCCC(=O)Nc1ccccc1-c1nc(Nc2ccc3[nH]ncc3c2)c2ccccc2n1 [Example 212]	> 100 µM	
COCCN(C)CC(=O)Nc1ccccc1-c1nc(Nc2ccc3[nH]ncc3c2)c2ccccc2n1 [Example 213]	> 100 µM	
CC(C)(C)C(=O)Nc1ccccc1-c1nc(Nc2ccc3[nH]ncc3c2)c2ccccc2n1 [Example 214]	> 100 µM	
CNCC(=O)Nc1ccccc1-c1nc(Nc2ccc3[nH]ncc3c2)c2ccccc2n1 [Example 215]	17 µM and > 10 µM	
O=C(Nc1ccccc1-c1nc(Nc2ccc3[nH]ncc3c2)c2ccccc2n1)c1ccoc1 [Example 216]	> 100 µM	
O=C(CN1CCCC1)Nc1ccccc1-c1nc(Nc2ccc3[nH]ncc3c2)c2ccccc2n1 [Example 217]	36 µM	

SMILES	IC50 (ROCK2)	other results
O=C(Nc1ccccc1-c1nc(Nc2ccc3[nH]ncc3c2)c2ccccc2n1)C1CCCNC1 (centres unmarked) [Example 218]	> 100 µM	
COC(=O)Nc1ccccc1-c1nc(Nc2ccc3[nH]ncc3c2)c2ccccc2n1 [Example 219]	2.9 µM	
O=C(Nc1ccccc1-c1nc(Nc2ccc3[nH]ncc3c2)c2ccccc2n1)N1CCOCC1 [Example 220]	> 100 µM	
CN(C)C(=O)Nc1ccccc1-c1nc(Nc2ccc3[nH]ncc3c2)c2ccccc2n1 [Example 221]	49 µM	
O=C(Nc1ccccc1-c1nc(Nc2ccc3[nH]ncc3c2)c2ccccc2n1)c1ccncc1 [Example 222]	> 100 µM	
O=C(Nc1ccccc1-c1nc(Nc2ccc3[nH]ncc3c2)c2ccccc2n1)c1ccccn1 [Example 223]	> 100 µM	
CN(C)CCC(=O)Nc1ccccc1-c1nc(Nc2ccc3[nH]ncc3c2)c2ccccc2n1 [Example 224]	5.3 µM	
COCC(=O)Nc1ccccc1-c1nc(Nc2ccc3[nH]ncc3c2)c2ccccc2n1 [Example 225]	1.7 µM	
CC(C)NC(=O)CNc1cccc(-c2nc(Nc3ccc4[nH]ncc4c3)c3ccccc3n2)c1 [Example 230]	> 3 µM	
O=C(CN1CCOCC1)Nc1ccccc1-c1nc(Nc2ccc3[nH]ncc3c2)c2ccccc2n1 [Example 231]	> 3 µM	
CC(C)NC(=O)COc1ccccc1-c1nc(Nc2ccc3[nH]ncc3c2)c2ccccc2n1 [Example 232]	> 100 µM	
Oc1ccccc1-c1nc(Nc2ccc3[nH]ncc3c2)c2ccccc2n1 [Example 233]	2 µM and 2.5 µM	
COCCNC(=O)COc1ccccc1-c1nc(Nc2ccc3[nH]ncc3c2)c2ccccc2n1 [Example 234]	> 100 µM	
O=C(COc1ccccc1-c1nc(N(CC(=O)NCC2CC2)c2ccc3[nH]ncc3c2)c2ccccc2n1)NCC1CC1 [Example 235]	> 100 µM	
CCCC(=O)Nc1cccc(-c2nc(Nc3ccc4[nH]ncc4c3)c3ccc(OCCOC)cc3n2)c1 [Example 263]		IC50 (ROCK 1): > 3 µM
CC(=O)Oc1cccc(-c2nc(Nc3ccc4[nH]ncc4c3)c3ccccc3n2)c1 [Example 272]		IC50 (ROCK 1): > 10 µM
C[C@@H](N)[C@H]1CC[C@H](C(=O)Nc2ccncc2)CC1 [Example Y27632, reference compound]		Specificity of kinase inhibition (FIG. 10) (ROCK2): inhibits both ROCK1 and ROCK2, as well as PKC

Now from value to compound, other results behind:

IC50 (ROCK2)	SMILES	other results
> 100 µM	O=C(COc1ccccc1-c1nc(N(CC(=O)NCc2ccccc2)c2ccc3[nH]ncc3c2)c2ccccc2n1)NCc1ccccc1 [Example 236]	
> 100 µM	O=C(COc1ccccc1-c1nc(Nc2ccc3[nH]ncc3c2)c2ccccc2n1)NCc1ccccc1 [Example 237]	
> 100 µM	COCCNC(=O)COc1ccccc1-c1nc(N(CC(=O)NCCOC)c2ccc3[nH]ncc3c2)c2ccccc2n1 [Example 238]	
> 100 µM	COc1ccccc1-c1nc(Nc2ccc3[nH]ncc3c2)c2ccccc2n1 [Example 239]	
23 µM	CC(=O)Oc1ccccc1-c1nc(Nc2ccc3[nH]ncc3c2)c2ccccc2n1 [Example 240]	
> 0.3 µM	CCCC(=O)Nc1cccc(-c2nc(Nc3ccc4c(cnn4C)c3)c3cc(OCCN(C)C)ccc3n2)c1 [Example 243]	
0.255 µM and 0.182 µM	CCCC(=O)Nc1cccc(-c2nc(Nc3ccc4[nH]ncc4c3)c3cc(OCC4CC4)ccc3n2)c1 [Example 258]	
0.029 µM	CCCCC(=O)Nc1cccc(-c2nc(Nc3ccc4[nH]ncc4c3)c3ccccc3n2)c1 [Example 259]	
> 0.3 µM	CCCC(=O)Nc1cccc(-c2nc(Nc3ccc4c(cnn4C(=O)OC(C)(C)C)c3)c3cc(OCCOC)c(OC)cc3n2)c1 [Example 261]	
0.024 µM	CCCC(=O)Nc1cccc(-c2nc(Nc3ccc4[nH]ncc4c3)c3cc(OC)c(OCCOC)cc3n2)c1 [Example 262]	
6.5 µM and 7.3 µM	c1ccc(-c2nc(Nc3ccc4[nH]ncc4c3)c3cc(OCCN4CCOCC4)ccc3n2)cc1 [Example 265]	
3.9 µM	Oc1ccc2nc(-c3ccccc3)nc(Nc3ccc4[nH]ncc4c3)c2c1 [Example 267]	
